From patent publication US20090286876A1, “NEUROPROTECTIVE BENZOATE AND BENZAMIDE COMPOUNDS” (Samaritan Pharmaceuticals, Inc., priority 2003, published 2009)
Read-outs that look alike come from different tables or passages of the source.

Tests used:
PC12 cells [1] = experiment: Neuroprotection against Aβ1-42 cytotoxicity, MTT assay (NADPH diaphorase activity); assay type: cell-based, rat
PC12 cells [2] = experiment: Reversal of Aβ1-42-induced ATP depletion (ATPLite-M assay); details: for ATP decrease induced by Aβ1-42, Aβ1-42 control = 100% reduction: 24 h pre-incubation, 24 h; for effect on Aβ1-42-induced ATP decrease, in words: compound 1-100 μM, Aβ1-42 0.1-10 μM
PC12 cells [3] = experiment: Aβ1-42-induced free radical production (2,7-DCF fluorescent probe); details: compound 1-100 μM 24 h pre-incubation; Aβ1-42 0.1-10 μM 24 h
HMG-CoA reductase mRNA = HMG-CoA reductase mRNA synthesis, real-time quantitative PCR; assay type: cell-based, rat; details: Aβ1-42 1 μM, 24 h, compared to control PC12 cells
[4] = compound 1-100 μM, Aβ1-42 0.1-10 μM

Molecule	protective effect against Aβ1-42 neurotoxicity (MTT), in words (PC12 cells [1]; [4])	ATP decrease induced by Aβ1-42, Aβ1-42 control = 100% reduction (PC12 cells [2]; compound 1 μM, Aβ1-42 0.1 μM) [%]	ATP decrease induced by Aβ1-42, Aβ1-42 control = 100% reduction (PC12 cells [2]; compound 1 μM, Aβ1-42 1 μM) [%]	ATP decrease induced by Aβ1-42, Aβ1-42 control = 100% reduction (PC12 cells [2]; compound 1 μM, Aβ1-42 10 μM) [%]	ATP decrease induced by Aβ1-42, Aβ1-42 control = 100% reduction (PC12 cells [2]; compound 10 μM, Aβ1-42 0.1 μM) [%]	ATP decrease induced by Aβ1-42, Aβ1-42 control = 100% reduction (PC12 cells [2]; compound 10 μM, Aβ1-42 1 μM) [%]	ATP decrease induced by Aβ1-42, Aβ1-42 control = 100% reduction (PC12 cells [2]; compound 10 μM, Aβ1-42 10 μM) [%]	ATP decrease induced by Aβ1-42, Aβ1-42 control = 100% reduction (PC12 cells [2]; compound 100 μM, Aβ1-42 0.1 μM) [%]	ATP decrease induced by Aβ1-42, Aβ1-42 control = 100% reduction (PC12 cells [2]; compound 100 μM, Aβ1-42 1 μM) [%]	ATP decrease induced by Aβ1-42, Aβ1-42 control = 100% reduction (PC12 cells [2]; compound 100 μM, Aβ1-42 10 μM) [%]	effect on Aβ1-42-induced free radical production, in words (PC12 cells [3])	efficacy range, inhibition of Aβ1-42 toxicity (mitochondrial diaphorase activity) (PC12 cells [1])	effect on Aβ1-42-induced ATP decrease, in words (PC12 cells [2])	protective effect against Aβ1-42 neurotoxicity (MTT), in words (PC12 cells [1])	HMG-CoA mRNA synthesis (HMG-CoA reductase mRNA) [times the control level]
CC(=O)OC1CC(OC(C)=O)C2(C)C(O)C3C(CC(C)C12)OC(=O)C3CN1CCN(C(=O)c2ccccc2)CC1 (stereo not shown) [SP016, acetic acid 5-acetoxy-3-(4-benzoyl-piperazin-1-yl-methyl)-4-hydroxy-4a, 8-dimethyl-2-oxo-dodecahydro-azuleno[6,5-b]furan-7-yl ester]	no protective activity	49.5 ± 10.2	81.5 ± 4.2	96.8 ± 30.6	101 ± 7.8	105 ± 10.1	110 ± 10.1	86.3 ± 15.7	100 ± 17.8	121 ± 29.0	amplified the Aβ1-42-induced free radicals production				
CC1=CCC23OC2(C)CCC2C(CN4CCN(C(=O)c5ccccc5)CC4)C(=O)OC2C13 (stereo not shown) [SP017, 3-(4-benzoyl-piperazin-1-yl-methyl)-6,6a-epoxy-6,9-dimethyl-3a,4,5,6,6a,7,9a,9b-octahydro-3H-azuleno[4,5-b]furan-2-one]	at 100 μM potentiated the toxic effect of Aβ1-42	28.1 ± 7.2	42.6 ± 5.8	73.0 ± 12.1	54.9 ± 15.6	44.9 ± 8.1	68.9 ± 7.3	115 ± 21.4	108 ± 20.8	122 ± 6.7	amplified the Aβ1-42-induced free radicals production	30-70%	able to reverse the effect of Aβ1-42 on ATP		
CCCCNc1ccc(C(=O)OCCN(C)C)cc1 [Tetracaine]		54.8 ± 4.0	32.2 ± 5.5	45.5 ± 6.1	59.5 ± 9.6	58.0 ± 18.9	41.9 ± 4.2	59.3 ± 10.5	45.4 ± 2.2	45.8 ± 6.5	exhibited a trend to reduce the Aβ1-42-induced free radical production		significantly prevented the Aβ1-42-induced decrease of intracellular ATP levels		
(+)-MK801														lessens in a dose-dependent manner PC12 cell viability decrease induced by Aβ1-42	
Aβ1-42: 42 amino acid β-amyloid peptide purchased from American Peptide Co., used as neurotoxic insult															1.48±0.17
